The source of these data is US6569631B1, “Microplate thermal shift assay for ligand development using 5-(4″dimethylaminophenyl)-2-(4′-phenyl)oxazole derivative fluorescent dyes” (3-Dimensional Pharmaceuticals, Inc., priority 1998, dated 2003).

One may read the Kd as the constant that tells how readily two partners part at equilibrium.

Read-outs that look alike come from different tables or passages of the source. Ends that are not written are not given here.

For experiment [1], the target named is T1, thrombin (Homo sapiens, UniProt P00734). The experiment is described as follows: Fluorescence signal of reporter dyes in 384-well thermal unfolding of thrombin. Further details: A stock human α-thrombin solution (1.56 mg/mL) from Enzyme Research Labs; purchased Enzyme Research Labs. Particulars: 100 μM dye; 1 μM thrombin; 500+/−25 nm bandpass filter. The procedure:
A 1 μM thrombin solution was mixed with 5-(4″-dimethylaminophenyl)-2-(4′-phenyl)oxazole sulfonate dye to yield a final concentration of 100 μM 5-(4″-dimethylaminophenyl)-2-(4′-phenyl)oxazole sulfonate. This solution was pipetted into all the wells of a 384-well black thermocycler plate with a final volume of 4 μL per well, and 3 μL of mineral oil was then added to each well. The fluorescence signal from each well was recorded in a closed, black-walld metal box using a cooled CCD camera (SenSys, Photometrix, Inc.) equipped with a 500+/−25 nm bandpass filter. An identical experiment was performed separately, using the same instrument, camera, and filters, except that a final concentration of 100 μM 1,8-ANS was used in place of 5-(4″-dimethylaminophenyl)-2-(4′-phenyl)oxazole sulfonate as the reporter dye.
The ratio of signals from 5-(4″-dimethylaminophenyl)-2-(4′-phenyl)oxazole sulfonate and 1,8-ANS was calculated by averaging the signals of all 384 wells on each plate, and dividing the average signal from 1,8-ANS into that for 5-(4″-dimethylaminophenyl)-2-(4′-phenyl)oxazole sulfonate.

Experiment [2] has as its target T2, chicken muscle pyruvate kinase (Gallus gallus, UniProt P00548).
T2 construct: purchased Sigma Chemical Co. P6406
As to the kind of experiment: Fluorescence signal of reporter dyes on thermal unfolding of pyruvate kinase. Particulars: wavelengths above 480 nm; excitation 370 nm. The method, then:
A 0.2 mg/mL solution of chicken muscle pyruvate kinase (Sigma Chemical Co., catalog # P6406) was incubated with either 10 mM 1-anilinonaph-thalene-8-sulfonate (1,8-ANS) (FIG. 44, open squares) or 10 mM 5-(4″-dimethylaminophenyl)-2-(4′-phenyl)oxazole sulfonate (Molecular Probes catalogue no. D-12800) (FIG. 44, closed squares) in a 500 μL four-sided quartz cuvette. Fluorescence spectra were recorded using a spectrofluorimeter (Florolog, SPEX/ISA), with the excitation monochromator set to 370 nm, and the excitation and emission bandpass slit widths set at 1 nm, The instrument was operated in front-face collection mode, so that fluorescence was collected from the same face of the cuvette that was illuminated by the exciting light source. Emission spectra of native protein+dye were recorded after mixing the protein and dye solutions at room temperature. Emission spectra of denatured protein and fluorescence dye were recorded after the protein/dye solutions were heated to 75° C. for 2 minutes, and then cooled to room temperature immediately prior to data collection. The spectra shown in FIG. 44 are difference spectra that were calculated by subtracting the native protein fluorescence from the denatured protein fluorescence for each dye at 25° C. […]

The target of experiment [3] is T3, acidic fibroblast growth factor (aFGF) (Homo sapiens, UniProt P05230).
T3 construct: host or cells: E. coli
T3 sequence (P05230 whole entry, species assumed): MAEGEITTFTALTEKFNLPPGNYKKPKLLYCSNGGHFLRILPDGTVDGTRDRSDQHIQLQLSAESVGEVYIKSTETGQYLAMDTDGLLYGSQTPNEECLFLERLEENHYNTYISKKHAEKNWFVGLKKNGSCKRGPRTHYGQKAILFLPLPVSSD
As to the kind of experiment: Microplate thermal shift assay for ligands binding to aFGF, turbidity signal. Particulars: for ΔTm: relative to aFGF alone (317.15 °K); for Tm: turbidity signal, aFGF 0.25 mg/mL, ligand 47-200 μM. The text has this:
The second therapeutic receptor tested in the microplate thermal shift assay was acidic fibroblast growth factor (aFGF), a growth factor that plays a key role in angiogenesis (Folkman, J. et al., J. Biol. Chem. 267:1.0931-10934 (1992)). A synthetic gene for this protein was purchased from R&D Systems (Minneapolis, Minn.), and was cloned and expressed in E. coli using methods similar to those described for basic fibroblast growth factor (bFGF) (Thompson, L. D. et al., Biochemistry 33:3831-3840 (1994); Pantoliano, M. W. et al., Biochemistry 33:10229-10248 (1994); Springer, B. A. et al., J. Biol. Chem. 269:26879-26884 (1994)). Recombinant aFGF was then purified by heparin-sepharose affinity chromatography as described (Thompson, L. D. et al., Biochemistry 33:3831-3840 (1994)). aFGF is also known to bind heparin/heparan, which is a cofactor for mitogenic activity. […] A microplate thermal assay of these compounds was set up in a way similar to that described above for human α-thrombin. […] The affinity constants covered a fairly broad range of binding affinities, with pentosan PSO4 showing the highest affinity.

Experiment [4] deals with T4, heparin binding site of human α-thrombin (Homo sapiens, UniProt P00734).
T4 construct: A stock human α-thrombin solution (1.56 mg/mL) from Enzyme Research Labs; purchased Enzyme Research Labs
The experiment is described as follows: Microplate thermal shift assay, ligands binding to the heparin binding site, turbidity signal. An excerpt: Assays for ligands that bind to the heparin binding site of human α-thrombin are more difficult to perform than assays for ligands that bind to the active site of human α-thrombin. At the heparin binding site, no substrate is hydrolyzed, so no spectrophotometric signal can be amplified for instrumental detection. Heparin activity is usually estimated in biological clotting time assays. […] Thus, heparin binding to human α-thrombin represents the kind of challenge encountered with the vast majority of non-enzyme receptor/ligand binding events, which are commonly observed for hormone/receptor interactions, repressor/DNA interactions, neurotransmitter/receptor interactions, etc. Several heparin-like sulfated oligosaccharides and sulfated naphthalene compounds were assayed by the microplate thermal shift assay. Using the thermal shift assay, it was possible to use a single compound per well to quickly rank the compounds in order of increasing binding affinity, with Kd's ranging over three orders of magnitude (see Table 4). Like the experiment in Example 1, the thermal shift assay results agreed closely with the results obtained through an alternative method, which required a series of laborious (15 to 20 single determinations) fluorescence quench assays over a wide range of concentrations of low MW heparin (Olson, S. T. et al., J. Biol. Chem. 266:6342-6352 (1991)).

Another experiment deals with T5, D(II) FGFR1 (Homo sapiens, UniProt P11362).
T5 construct: made in house
T5 sequence (P11362 158-246 limits assumed): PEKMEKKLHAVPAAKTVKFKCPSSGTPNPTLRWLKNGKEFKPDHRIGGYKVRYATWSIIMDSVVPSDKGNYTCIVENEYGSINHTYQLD
As to the kind of experiment: Miniaturized (10 μL) microplate thermal shift assay of D(II) FGFR1. The experiment is classed as binding. The settings on record: aprosulate 300 μM. The procedure: Recombinant D(II) FGFR1 was purified from inclusion bodies and purified by affinity chromatography on heparin sepharose. A stock solution of D(II) FGFR1 (15 mg/mL; 1.1 mM) was diluted to 50 μM in assay buffer (50 mM Hepes, pH 7.5, 0.1 M NaCl). The assay volume was 10 μL and the concentration of 1,8-ANS was 250 μM.

The target of the next experiment is T6, human α-thrombin (Homo sapiens, UniProt P00734).
T6 construct: A stock human α-thrombin solution (1.56 mg/mL) from Enzyme Research Labs; purchased Enzyme Research Labs
The experiment is described as follows: Microplate thermal shift screen of biochemical conditions, thrombin stability. Particulars: NaCl concentration increased from 0 to 0.5 M. The procedure: The microplate thermal shift assay was used, with four different fluorophores, to simultaneously screen the effects of multiple pH values, sodium chloride concentrations, and reduction-oxidation compounds on human α-thrombin stability. Thrombin solution was diluted to 1 μM in 50 mM Hepes, pH 7.5, NaCl at either 0.1 M or 0.5 M, 10 mM EDTA, 10 mM CaCl2, 10 mM dithiothreitol, […], and 100 μM 1,8-ANS, 10% (v/v) glycerol, or 0.1% (w/v) polyethylene glycol (PEG) 6000. Reaction volume was 100 μL.
Using equation (1), it is possible to estimate the NaCl binding to be ˜6 mM near the Tm (53° C.) in 50 mM Hepes pH 8.0 buffer (zero and 0.10 M NaCl).

In a further experiment the test system is D(II) FGF receptor 1. The experiment is described as follows: Microplate thermal shift screen of biochemical conditions, D(II) FGF receptor 1 stability. Particulars: NaCl concentration increased from 0.1 to 0.5 M. Further details: species or system human. The procedure: The microplate thermal shift assay was used to simultaneously screen the effects of multiple biochemical conditions on D(II) FGF receptor 1 stability. The assays were performed by mixing 1 μL of D(II) FGFR1 (from a 500 μM concentrated stock in 50 mM HEPES pH 7.5) with 4 μL of each biochemical condition in wells of a 96-well polycarbonate microtiter plate. Final protein concentration after mixing was 100 μM and final 1,8-ANS concentration was 200 μM. Biochemical conditions were tested as follows: The pH's tested were 5 (Na acetate), 6 (MES), 7 (MOPS), 8 (HEPES), and 9 (CHES), with final buffer concentrations of 50 mM.
The salt concentrations tested were 0.1 or 0.5 M NaCl. Additives were tested in 50 mM MOPS, pH 7, 0.1 M NaCl, at final concentrations of 1 mM (EDTA, dithiothreitol), 10 mM (CaCl2, MgCl2, MgSO4, NiSO4),50 mM (arginine), 100 mM ((NH4)2SO4, LiSO4, Na2SO4, ZnSO4), 5% w/v (polyethylene glycol 6000), and 10% v/v glycerol.
Thermal denaturation profiles were generated as previously described for thrombin, aFGF, Factor D, and Factor Xa, by incremental heating of the microplate followed by a fluorescence reading after each temperature increase. Data were analyzed by non-linear least squares fitting as described previously.

Experiment [5] has as its system human urokinase-type plasminogen activator (u-PA). The experiment is described as follows: Miniaturized microplate thermal shift assay of urokinase. The settings on record: 5 μL; MOPS pH 7, NaCl, 1,8-ANS. The experiment is classed as binding. The text has this: Another target molecule analyzed was human urokinase-type plasminogen activator (u-PA). U-PA enzymatically converts plasminogen into the active protease plasmin. U-PA is involved in tissue remodeling, cellular migration and metastases. The gene for u-PA was obtained from ATCC (Rockville, Md.) and modified to appropriately express active enzyme in E. coli. u-PA was cloned, overexpressed in E. coli, and purified using procedures similar to those described by Winkler et al. (Biochemistry 25:4041-4045 (1986)). […] The experiment was performed in the miniaturized format in 5 μL well volume. One μL of concentrated CMK-u-PA (13 g/L, 371.4 μM) was added to 4 μL of 62.5 mM MOPS, pH 7, 125 mM NaCl, and 250 μM 1,8-ANS, in multiple wells of a 96-well polycarbonate V-bottom microtiter plate. A thermal denaturation curve was generated as previously described for thrombin, aFGF, D(II)FGFR1, Factor D, and Factor Xa, by incremental heating of the microplate followed by a fluorescence reading after each temperature increase.

The target in experiment [6] is T1, thrombin. Particulars: 5 mM Tris buffer pH 8.0, 0.1% PEG, 25° C.; read-out: Kd of the Na+ binding site; cited from earlier work.

T2 sequence (P00548 whole entry): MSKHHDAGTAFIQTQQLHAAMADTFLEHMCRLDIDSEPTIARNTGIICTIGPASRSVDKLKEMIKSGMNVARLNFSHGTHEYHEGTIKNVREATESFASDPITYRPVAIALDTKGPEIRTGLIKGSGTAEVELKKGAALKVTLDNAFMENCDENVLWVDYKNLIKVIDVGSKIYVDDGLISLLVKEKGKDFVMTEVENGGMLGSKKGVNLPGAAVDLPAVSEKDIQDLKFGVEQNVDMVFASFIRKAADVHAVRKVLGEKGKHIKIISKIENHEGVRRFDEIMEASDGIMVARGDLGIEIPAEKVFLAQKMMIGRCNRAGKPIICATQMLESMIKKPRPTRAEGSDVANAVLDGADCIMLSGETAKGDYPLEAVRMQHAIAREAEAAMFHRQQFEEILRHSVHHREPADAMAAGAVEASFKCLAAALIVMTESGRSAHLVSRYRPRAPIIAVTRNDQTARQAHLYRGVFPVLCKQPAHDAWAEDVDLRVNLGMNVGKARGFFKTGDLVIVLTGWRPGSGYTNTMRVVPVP

With `CN(C)c1ccc(-c2cnc(-c3ccc(S(=O)(=O)O)cc3)o2)cc1` [5-(4″-dimethylaminophenyl)-2-(4′-phenyl)oxazole sulfonate], at thrombin [1], the “signal relative to 1,8-ANS, average of 384 wells” value is 4.25 times. Moreover, the “fluorescence signal relative to 1,8-ANS on unfolding of pyruvate kinase” value in experiment [2] is listed as “approximately 3.2 fold”.
Turning to `Cc1ccc(C(=O)Nc2ccc(S(=O)(=O)O)c3cc(S(=O)(=O)O)cc(S(=O)(=O)O)c23)cc1NC(=O)c1cccc(NC(=O)Nc2cccc(C(=O)Nc3cc(C(=O)Nc4ccc(S(=O)(=O)O)c5cc(S(=O)(=O)O)cc(S(=O)(=O)O)c45)ccc3C)c2)c1` [Suramin, suramin], the values for the ΔTm in experiment [3] and in [4] (relative to thrombin alone (329.15 °K)) were 13.0 °K and 11.0 °K, respectively. Besides, the Tm in experiment [3] is listed as 330.15 °K; in experiment [4] (turbidity signal, 11 μM thrombin, ligand 40-102 μM), 340.15 °K. The “affinity at Tm higher than the affinity of heparin 5000” value in experiment [4] (thermal shift assay, Table 4) was 5700 fold.
In the case of `O=C(NCCCNC(=O)[C@H](OS(=O)(=O)O)[C@@H](OS(=O)(=O)O)[C@H](O[C@@H]1O[C@H](COS(=O)(=O)O)[C@H](OS(=O)(=O)O)[C@H](OS(=O)(=O)O)[C@H]1OS(=O)(=O)O)[C@@H](COS(=O)(=O)O)OS(=O)(=O)O)[C@H](OS(=O)(=O)O)[C@@H](OS(=O)(=O)O)[C@H](O[C@@H]1O[C@H](COS(=O)(=O)O)[C@H](OS(=O)(=O)O)[C@H](OS(=O)(=O)O)[C@H]1OS(=O)(=O)O)[C@@H](COS(=O)(=O)O)OS(=O)(=O)O` [aprosulate], the “unfolding transition (Tm) in the presence of ligand” value at D(II) FGFR1 is on record as “about 320 K”. The “increase of the unfolding transition” value at D(II) FGFR1 (D(II) FGFR1 50 μM, 10 μL) is on record as “about 8 K”.
Regarding `[Cl-].[Na+]` [NaCl, sodium chloride], the ΔTm entry at human α-thrombin was “about 12 °C”; with D(II) FGF receptor 1 it was “about 5 °C”.
For the compound glu-gly-arg-chloromethylketone [CMK], in experiment [5], the “Tm of the CMK-u-PA complex” value worked out at 81 °C.
Take `[Na+]` [Na^+]: at thrombin [6], the Kd was 30000 ± 3000 µM.
For the compound EEEEEEEE, in experiment [3] (equation (1), estimated ΔHu 60.0 kcal/mole, ΔCpu 0.95 kcal/mole-°K, read-out: Kd at Tm), the Kd is 10.1 µM. The Kd in [3] (estimate by equation (3), ΔHL −10.0 kcal/mole, read-out: Kd at 298° K Observed) was 3.04 µM. Also, in experiment [3], the ΔTm is reported as 5.0 °K and the Tm stood at 322.15 °K.
